According to PubChem BioAssay (NCI):
Several values for one entry are separate records, joined by “and”; a condition that tells them apart may be missing. Equal entries are not always repeated.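 Tested at 5 concentrations; 48 h exposure; 96-well plates; endpoints linearly interpolated, else capped at highest concentration. GI50 = concentration required for 50% inhibition of growth. TGI marks complete inhibition of growth.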

How the values were obtained:
Experiment in all cases: NCI anticancer screen, dose series, 48 h
A549 NSCLC = tested on: A549 NSCLC
ACHN renal = tested on: ACHN renal
HT29 colon = tested on: HT29 colon
LXFL 529 NSCLC = tested on: LXFL 529 NSCLC
M19-MEL melanoma = tested on: M19-MEL melanoma
MOLT-4 leukemia = tested on: MOLT-4 leukemia
SF-295 CNS = tested on: SF-295 CNS
SF-539 CNS = tested on: SF-539 CNS
UO-31 renal = tested on: UO-31 renal
BT-549 breast = tested on: BT-549 breast

## CC(=O)[CH-]C(=O)c1ccccc1.CC(=O)[CH-]C(=O)c1ccccc1.[CH2-]CCC.[CH2-]CCC.[Sn+4]
A549 NSCLC
  GI50: 1930 nM
  TGI: 4130 nM
ACHN renal
  GI50: 1490 nM
  TGI: 2860 nM
HT29 colon
  GI50: 1730 nM
  TGI: 3390 nM
LXFL 529 NSCLC
  GI50: 198 nM
  TGI: 627 nM
M19-MEL melanoma
  GI50: 632 nM
  TGI: 1960 nM
MOLT-4 leukemia
  GI50: 421 nM
  TGI: 1860 nM
SF-295 CNS
  GI50: 1510 nM
  TGI: 2870 nM
SF-539 CNS
  GI50: 1360 nM
  TGI: 2770 nM
UO-31 renal
  GI50: 1370 nM
  TGI: 2660 nM

## CC1(C)CC(=O)c2c(oc3cc(O)c(O)cc23)C1
A549 NSCLC
  TGI: > 100000 nM
ACHN renal
  TGI: > 100000 nM
HT29 colon
  TGI: > 100000 nM
LXFL 529 NSCLC
  TGI: 91800 nM
M19-MEL melanoma
  TGI: > 100000 nM
MOLT-4 leukemia
  TGI: > 100000 nM
SF-295 CNS
  TGI: > 100000 nM
SF-539 CNS
  TGI: > 100000 nM
UO-31 renal
  TGI: > 100000 nM

## Cc1ccc(/C=C2\CNC/C(=C\c3ccc(C)cc3)C2=O)cc1
A549 NSCLC
  GI50: 861 nM
  TGI: 2900 nM and > 27100 nM
ACHN renal
  TGI: 3810 nM and 5930 nM
BT-549 breast
  TGI: 4280 nM
HT29 colon
  GI50: 392 nM
  TGI: 1410 nM and 3040 nM
LXFL 529 NSCLC
  GI50: 819 nM
  TGI: 2710 nM and 2170 nM
M19-MEL melanoma
  GI50: 2100 nM
  TGI: 2980 nM and 5000 nM
MOLT-4 leukemia
  GI50: 1810 nM
  TGI: 4840 nM and 19200 nM
SF-295 CNS
  TGI: > 49200 nM
SF-539 CNS
  GI50: 1530 nM
  TGI: 5040 nM and 19500 nM
UO-31 renal
  TGI: 3140 nM and 3250 nM

## CC[C@@]1(O)C(=O)OCc2c1cc1n(c2=O)Cc2cc3c(N)cccc3nc2-1
A549 NSCLC
  GI50: 70.1 nM
  TGI: 2310 nM
ACHN renal
  GI50: 4.48 nM
  TGI: 50.1 nM
BT-549 breast
  GI50: 39.4 nM
  TGI: 5260 nM
HT29 colon
  GI50: 77.4 nM
  TGI: > 30100 nM
LXFL 529 NSCLC
  TGI: 2980 nM
M19-MEL melanoma
  TGI: 654 nM
MOLT-4 leukemia
  GI50: 2.95 nM
  TGI: 60.5 nM and 64.9 nM
SF-295 CNS
  GI50: 8.74 nM
  TGI: 2370 nM
SF-539 CNS
  GI50: 5.11 nM
  TGI: 18.4 nM
UO-31 renal
  GI50: 8.41 nM
  TGI: 127 nM

## COc1ccc2[nH]c3c(=O)[nH]ncc3c2c1
A549 NSCLC
  TGI: > 100000 nM
ACHN renal
  TGI: > 100000 nM
HT29 colon
  TGI: > 100000 nM
LXFL 529 NSCLC
  TGI: > 100000 nM
M19-MEL melanoma
  TGI: > 100000 nM
MOLT-4 leukemia
  TGI: > 100000 nM
SF-295 CNS
  TGI: > 100000 nM
SF-539 CNS
  TGI: > 100000 nM
UO-31 renal
  TGI: > 100000 nM

## Cc1ccccc1NC(=O)C(=O)CC(=O)c1ccc([N+](=O)[O-])cc1
A549 NSCLC
  TGI: > 100000 nM
ACHN renal
  TGI: > 100000 nM
HT29 colon
  TGI: > 100000 nM
LXFL 529 NSCLC
  TGI: > 100000 nM
M19-MEL melanoma
  TGI: > 100000 nM
SF-295 CNS
  TGI: > 100000 nM
SF-539 CNS
  TGI: > 100000 nM
UO-31 renal
  TGI: > 100000 nM

## CC(=O)OCCC(O[Si](c1ccccc1)(c1ccccc1)C(C)(C)C)C(C)(C)O (stereo unspecified)
A549 NSCLC
  TGI: > 100000 nM
ACHN renal
  TGI: > 100000 nM
HT29 colon
  TGI: 66900 nM
LXFL 529 NSCLC
  TGI: > 100000 nM
M19-MEL melanoma
  TGI: 57200 nM
MOLT-4 leukemia
  TGI: 63000 nM
SF-295 CNS
  TGI: 45600 nM
SF-539 CNS
  TGI: 63800 nM
UO-31 renal
  TGI: 68700 nM

## O=C1C(c2ccccc2)=C(c2ccccc2)[C@H](c2ccccc2)[C@]1(Cc1nnn(-c2ccc([N+](=O)[O-])cc2)c1N1CCOCC1)c1ccccc1
A549 NSCLC
  TGI: > 37500 nM
ACHN renal
  TGI: > 37500 nM
HT29 colon
  TGI: > 37500 nM
LXFL 529 NSCLC
  TGI: > 37500 nM
M19-MEL melanoma
  TGI: > 37500 nM
MOLT-4 leukemia
  TGI: > 37500 nM
SF-295 CNS
  TGI: > 37500 nM
SF-539 CNS
  TGI: > 37500 nM

## CC(C)(C)c1cc(CCC(=O)Nc2ccc(Cl)cc2Cl)nc(N)n1
A549 NSCLC
  TGI: > 100000 nM
ACHN renal
  TGI: > 100000 nM
HT29 colon
  TGI: > 100000 nM
LXFL 529 NSCLC
  TGI: > 100000 nM
M19-MEL melanoma
  TGI: > 100000 nM
MOLT-4 leukemia
  TGI: > 100000 nM
SF-295 CNS
  TGI: > 100000 nM
SF-539 CNS
  TGI: > 100000 nM
UO-31 renal
  TGI: > 100000 nM

## Cc1cc(NC(=O)NC(=O)c2ccccc2N(C)C)ccc1Oc1ncc(Br)cn1
A549 NSCLC
  GI50: 584 nM
  TGI: > 63100 nM
ACHN renal
  GI50: 404 nM
  TGI: > 68100 nM
BT-549 breast
  TGI: > 46400 nM
HT29 colon
  TGI: 15200 nM
LXFL 529 NSCLC
  GI50: 658 nM
  TGI: > 100000 nM
M19-MEL melanoma
  GI50: 2510 nM
  TGI: > 100000 nM
MOLT-4 leukemia
  GI50: 533 nM
  TGI: 39700 nM
SF-295 CNS
  TGI: 21800 nM
SF-539 CNS
  GI50: 208 nM
  TGI: 548 nM and 1030 nM
UO-31 renal
  GI50: 584 nM
  TGI: > 63100 nM
